Results published in patent publication US20240174624A1, “CHIRAL N-(1,3,4-OXADIAZOLE-2-YL)PHENYL CARBOXYLIC ACID AMIDES AND THEIR USE AS HERBICIDES” (Bayer Aktiengesellschaft, priority 2021, published 2024).

Tests used:
ALOMY = assay: Pre-emergence herbicidal action; type: in vivo, Alopecurus myosuroides; conditions: 20 g a.i./ha, comparative experiment
From the text: (§1) Seeds of monocotyledonous and dicotyledonous weed plants and crop plants are laid out in sandy loam soil in wood-fibre pots and covered with soil. The compounds of the invention, formulated in the form of wettable powders (WP) or as emulsion concentrates (EC), are then applied to the surface of the covering soil in the form of an aqueous suspension or emulsion at a water application rate equivalent to 600 to 800 l/ha, with addition of 0.2% wetting agent. After the treatment, the pots are placed in a greenhouse and kept under good growth conditions for the trial plants. The damage to the test plants is scored visually after a test period of 3 weeks by comparison with untreated controls (herbicidal activity in percent (%): 100% activity=the plants have died, 0% activity=like control plants). […] The tables below illustrate, in an illustrative manner, the post-emergence herbicidal action of the compounds of the invention, the herbicidal activity being stated in percent. In the experiments that follow, the herbicidal action of the compounds of the invention and that of the corresponding known racemic compounds closest from WO2012126932 and WO2018202535 were compared under the above-specified conditions by the pre-emergence and post-emergence method. The example numbers given in the tables relate to the compounds disclosed in the respective documents.

AVEFA = assay: Pre-emergence herbicidal action; type: in vivo, Avena fatua; conditions: 20 g a.i./ha, comparative experiment
From the text: as §1

LOLRI [1] = assay: Pre-emergence herbicidal action; type: in vivo, Lolium rigidum; conditions: 20 g a.i./ha, comparative experiment
From the text: as §1

ZEAMX [2] = assay: Pre-emergence damage to crop plants; type: in vivo, Zea mays; conditions: comparative experiment
From the text: as §1

GLXMA = assay: Pre-emergence damage to crop plants; type: in vivo, Glycine max; conditions: comparative experiment
From the text: as §1

DIGSA = assay: Post-emergence herbicidal action; type: in vivo, Digitaria sanguinalis; conditions: 20 g a.i./ha, comparative experiment
Method: (§2) Seeds of monocotyledonous and dicotyledonous weed and crop plants are laid out in sandy loam soil in wood-fibre pots, covered with soil and cultivated in a greenhouse under good growth conditions. 2 to 3 weeks after sowing, the test plants are treated at the one-leaf stage. The compounds of the invention, formulated in the form of wettable powders (WP) or as emulsion concentrates (EC), are then sprayed onto the green parts of the plants in the form of an aqueous suspension or emulsion at a water application rate equating to 600 to 800 l/ha, with addition of 0.2% wetting agent. After the test plants have been left to stand in the greenhouse under optimal growth conditions for about 3 weeks, the action of the preparations is assessed visually in comparison to untreated controls (herbicidal action in percent (%): 100% activity=the plants have died, 0% activity=like control plants). […] The tables below illustrate, in an illustrative manner, the post-emergence herbicidal action of the compounds of the invention, the herbicidal activity being stated in percent. In the experiments that follow, the herbicidal action of the compounds of the invention and that of the corresponding known racemic compounds closest from WO2012126932 and WO2018202535 were compared under the above-specified conditions by the pre-emergence and post-emergence method. The example numbers given in the tables relate to the compounds disclosed in the respective documents.

VERPE [3] = assay: Post-emergence herbicidal action; type: in vivo, Veronica persica; conditions: 5 g a.i./ha, comparative experiment
Method: as §2

LOLRI [4] = assay: Post-emergence herbicidal action; type: in vivo, Lolium rigidum; conditions: 20 g a.i./ha, comparative experiment
Method: as §2, with “The example numbers given in the tables relate to the compounds disclosed in the respective documents.” left out

ZEAMX [5] = assay: Post-emergence damage to crop plants; type: in vivo, Zea mays; conditions: 20 g a.i./ha, comparative experiment
Method: as §2

TRZAS = assay: Post-emergence damage to crop plants; type: in vivo, Triticum aestiva; conditions: 20 g a.i./ha, comparative experiment
Method: as §2

BRSNW = assay: Post-emergence damage to crop plants; type: in vivo, Brassica napus; conditions: 20 g a.i./ha, comparative experiment
Method: as §2, with “The example numbers given in the tables relate to the compounds disclosed in the respective documents.” left out

MATIN = assay: Pre-emergence herbicidal action; type: in vivo, Matricaria inodora; conditions: 20 g a.i./ha, comparative experiment
From the text: as §1

POLCO = assay: Pre-emergence herbicidal action; type: in vivo, Polygonum convolvulus; conditions: 320 g a.i./ha, comparative experiment
From the text: as §1

SETVI [6] = assay: Pre-emergence herbicidal action; type: in vivo, Setaria viridis; conditions: 20 g a.i./ha, comparative experiment
From the text: as §1

STEME [7] = assay: Pre-emergence herbicidal action; type: in vivo, Stellaria media; conditions: comparative experiment
From the text: as §1

VERPE [8] = assay: Pre-emergence herbicidal action; type: in vivo, Veronica persica; conditions: comparative experiment
From the text: as §1

CYPES [9] = assay: Pre-emergence herbicidal action; type: in vivo, Cyperus esculentus; conditions: 20 g a.i./ha, comparative experiment
From the text: as §1

SETVI [10] = assay: Post-emergence herbicidal action; type: in vivo, Setaria viridis; conditions: 5 g a.i./ha, comparative experiment
Method: as §2

STEME [11] = assay: Post-emergence herbicidal action; type: in vivo, Stellaria media; conditions: 5 g a.i./ha, comparative experiment
Method: as §2

CYPES [12] = assay: Post-emergence herbicidal action; type: in vivo, Cyperus esculentus; conditions: 20 g a.i./ha, comparative experiment
Method: as §2, with “The example numbers given in the tables relate to the compounds disclosed in the respective documents.” left out

For `Cc1nnc(NC(=O)c2ccc(C(F)(F)F)c([S+]([O-])C3CC3)c2Cl)o1` (racemic) [Racemate known from WO2012126932, 2-chloro-N-(5-methyl-1,3,4-oxadiazol-2-yl)-3-[(rac)-cyclopropylsulfinyl]-4-(trifluoromethyl)benzamide, reference compound], the “Herbicidal action against ALOMY” value (ALOMY) was 0%, the “Herbicidal action against AVEFA” value (AVEFA) was 0% and the “Herbicidal action against LOLRI” value (LOLRI [1]) was 0%. For the same compound, the “Damage to ZEAMX” value (ZEAMX [2]; 80 g a.i./ha) was 70%, the “Damage to GLXMA” value (GLXMA; 20 g a.i./ha) was 60% and the “Damage to GLXMA” value (GLXMA; 80 g a.i./ha) was 100%. For the same compound, the “Herbicidal action against DIGSA” value (DIGSA) was 80%, the “Herbicidal action against VERPE” value (VERPE [3]) was 40% and the “Herbicidal action against LOLRI” value (LOLRI [4]) was 30%. The “Damage to ZEAMX” value (ZEAMX [5]) was 20%, the “Damage to TRZAS” value (TRZAS) was 40% and the “Damage to BRSNW” value (BRSNW) was 100%.
`Cc1nnc(NC(=O)c2ccc(C(F)(F)F)c([S+](C)[O-])c2Cl)o1` (racemic) [2-360, from WO2012126932, 2-chloro-N-(5-methyl-1,3,4-oxadiazol-2-yl)-3-[(rac)-methylsulfinyl]-4-(trifluoromethyl)benzamide, reference compound] was tested, and the “Herbicidal action against ALOMY” value (ALOMY) was 30%, the “Herbicidal action against AVEFA” value (AVEFA) was 0% and the “Herbicidal action against MATIN” value (MATIN) was 70%. For the same compound, the “Herbicidal action against POLCO” value (POLCO) was 20%, the “Herbicidal action against SETVI” value (SETVI [6]) was 50% and the “Herbicidal action against STEME” value (STEME [7]; 20 g a.i./ha) was 0%. The “Herbicidal action against STEME” value (STEME [7]; 80 g a.i./ha) was 70%, the “Herbicidal action against STEME” value (STEME [7]; 320 g a.i./ha) was 70% and the “Herbicidal action against VERPE” value (VERPE [8]; 20 g a.i./ha) was 0%. For the same compound, the “Herbicidal action against VERPE” value (VERPE [8]; 80 g a.i./ha) was 10%, the “Herbicidal action against CYPES” value (CYPES [9]) was 70% and the “Herbicidal action against ZEAMX” value (ZEAMX [2]; 320 g a.i./ha) was 60%. For the same compound, the “Herbicidal action against SETVI” value (SETVI [10]) was 80%, the “Herbicidal action against STEME” value (STEME [11]) was 0% and the “Herbicidal action against VERPE” value (VERPE [3]) was 20%. For the same compound, the “Herbicidal action against CYPES” value (CYPES [12]) was 50% and the “Damage to ZEAMX” value (ZEAMX [5]) was 20%.
